Earlier results in PMC2832019, “In Vitro Metabolic and Mitogenic Signaling of Insulin Glargine and Its Metabolites” (PLoS ONE, 2010).
Read-outs that look alike come from different tables or passages of the source.

Columns and labels:
[1] = test system: BT474, T47D, ZR75-1, MDA-MB231, HCC1937; conditions: ref [15]; cited from earlier work
From the text: (§1) A correlation between IGF1R autophosphorylation and cell proliferation has been recently assumed by Shukla et al., who observed an enhanced growth of the malignant cell line MCF7 after insulin glargine stimulation. The authors have observed 10% and 50% increases of cellular proliferation at 0.31 and about 15 nmol/L. This effect seemed to be linked to activation of the IGF1R and the MAPK pathway, since siRNA knockdown of IGF1R decreased the response. Unfortunately, no dose-response curve of IGF1R autophosphorylation as well as no proliferation data from siRNA knockdown of IR have ...

[2] = test system: Sprague-Dawley rats; conditions: rat, in vivo; cited from earlier work
[3] = test system: MCF-7 and SKBR-3 cells; conditions: ref [48]; cited from earlier work
From the text: as §1

[4] = test system: MCF7 and other tumor cell lines; conditions: ref [14]; cited from earlier work
From the text: as §1

[5] = test system: MCF7; conditions: ref [15], cited from earlier work
From the text: as §1

[6] = test system: MCF-7 cells, HCT-116 (colorectal cancer) and PC-3 (prostate cancer) cells; conditions: ref [49]; cited from earlier work
From the text: as §1, with “This effect seemed to be linked to activation of the IGF1R and the MAPK pathway, since siRNA knockdown of IGF1R decreased the response.” left out

[7] = after injection, healthy subjects and patients with type 1 diabetes; ref [52]–[55]; cited from earlier work
From the text: The therapeutic insulin glargine concentrations reported so far are 80- to 200-fold below the total plasma concentrations of IGF-1. […] Therefore, the concentration of free IGF-1 may be within the range of the plasma concentration of insulin glarg ...

[8] = test system: rats; conditions: 2-year life-time, relative to human insulin, ref [59]; cited from earlier work
From the text: In these studies plasma insulin concentrations were 15 to 25 nmol/L, covering parent compound and active metabolites. In consequence, actual glargine concentrations may be overestimated, the extent of which depends on the degree of proteolytic degradation at both the injection site and the serum. Quantitative assessment of the insulin glargine metabolism in humans is evolving, and will bring further clarification.

[9] = in vivo, sc; cited from earlier work

Substance: Human insulin: human insulin produced by recombinant DNA techniques or enzymatic semisynthesis
- response of cell lines to human insulin [1]: did not respond

Substance: [Asp^B10]insulin
- incidence of breast cancer [2]: higher incidence of breast cancer

Substance: [Gly^A21,Arg^B31,Arg^B32]insulin [Glargine]
- mitogenic activity [3]: slightly increased mitogenic activity of insulin glargine without statistical significance
- mitogenic activity relative to human insulin [4]: no evidence for an increased mitogenic activity
- increase of cellular proliferation ([5]; at 0.31 nmol/L): 10%
- increase of cellular proliferation ([5]; at about 15 nmol/L): 50%
- mitogenic potency [6]: increased mitogenic potency
- peak free serum insulin glargine level [7]: < 200 pmol/L
- tumor-promoting activity [8]: without evidence of tumor-promoting activity greater than human insulin

Substance: [Gly^A21,Arg^B31]insulin [Glargine IM]
- amount of metabolite [9]: only in minor quantities
